This note sets out measurements from ChEMBL document CHEMBL5465560, “Selectivity Literature for EUbOPEN Chemogenomic Library” (2024).

The target in experiment [1] is RAC-beta serine/threonine-protein kinase (Homo sapiens) (UniProt P31751). As to the kind of experiment: Selectivity interaction (ProQinase) EUB0000171b AKT2.
Experiment [2] deals with T1, Tyrosine-protein kinase ZAP-70 (Homo sapiens) (UniProt P43403).
T1 sequence (whole entry): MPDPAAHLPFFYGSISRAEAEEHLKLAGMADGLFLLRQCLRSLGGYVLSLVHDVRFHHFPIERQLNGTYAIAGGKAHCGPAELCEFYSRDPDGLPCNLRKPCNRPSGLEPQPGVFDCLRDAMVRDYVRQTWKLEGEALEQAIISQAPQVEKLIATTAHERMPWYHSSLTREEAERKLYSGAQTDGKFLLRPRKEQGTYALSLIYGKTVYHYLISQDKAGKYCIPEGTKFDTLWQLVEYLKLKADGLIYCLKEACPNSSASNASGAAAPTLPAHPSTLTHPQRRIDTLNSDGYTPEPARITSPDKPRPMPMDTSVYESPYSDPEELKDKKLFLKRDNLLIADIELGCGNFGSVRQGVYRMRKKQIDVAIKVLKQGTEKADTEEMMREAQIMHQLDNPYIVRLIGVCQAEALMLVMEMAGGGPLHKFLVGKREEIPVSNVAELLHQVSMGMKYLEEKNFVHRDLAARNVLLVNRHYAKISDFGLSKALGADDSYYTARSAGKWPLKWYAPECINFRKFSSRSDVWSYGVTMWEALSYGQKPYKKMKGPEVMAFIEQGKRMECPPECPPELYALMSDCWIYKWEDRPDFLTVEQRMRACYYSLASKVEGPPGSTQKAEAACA
As to the kind of experiment: Selectivity interaction (ProQinase) EUB0000171b ZAP70.

The target in experiment [3] is Activin receptor type-2A (Homo sapiens) (UniProt P27037). As to the kind of experiment: Selectivity interaction (KinomeScan (DiscoverX)) EUB0001079a ACVR2A. The following applies: at 1 µM.
Activin receptor type-2A (Homo sapiens), sequence (P27037 whole entry): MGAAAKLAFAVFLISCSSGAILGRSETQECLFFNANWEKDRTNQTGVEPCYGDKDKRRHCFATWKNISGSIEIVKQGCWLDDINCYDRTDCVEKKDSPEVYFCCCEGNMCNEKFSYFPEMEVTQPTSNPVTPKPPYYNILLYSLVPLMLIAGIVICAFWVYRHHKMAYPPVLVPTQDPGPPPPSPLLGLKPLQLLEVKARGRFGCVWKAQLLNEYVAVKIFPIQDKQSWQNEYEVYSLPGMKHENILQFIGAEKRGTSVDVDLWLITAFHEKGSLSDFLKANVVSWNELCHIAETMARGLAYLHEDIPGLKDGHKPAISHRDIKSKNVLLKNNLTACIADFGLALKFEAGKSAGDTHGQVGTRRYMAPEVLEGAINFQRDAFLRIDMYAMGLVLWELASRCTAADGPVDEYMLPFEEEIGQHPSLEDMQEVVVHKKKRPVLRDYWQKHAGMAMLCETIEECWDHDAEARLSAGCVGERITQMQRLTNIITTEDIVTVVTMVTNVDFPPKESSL
The target of experiment [4] is T2, Serine/threonine-protein kinase NLK (Homo sapiens) (UniProt Q9UBE8).
T2 sequence (whole entry): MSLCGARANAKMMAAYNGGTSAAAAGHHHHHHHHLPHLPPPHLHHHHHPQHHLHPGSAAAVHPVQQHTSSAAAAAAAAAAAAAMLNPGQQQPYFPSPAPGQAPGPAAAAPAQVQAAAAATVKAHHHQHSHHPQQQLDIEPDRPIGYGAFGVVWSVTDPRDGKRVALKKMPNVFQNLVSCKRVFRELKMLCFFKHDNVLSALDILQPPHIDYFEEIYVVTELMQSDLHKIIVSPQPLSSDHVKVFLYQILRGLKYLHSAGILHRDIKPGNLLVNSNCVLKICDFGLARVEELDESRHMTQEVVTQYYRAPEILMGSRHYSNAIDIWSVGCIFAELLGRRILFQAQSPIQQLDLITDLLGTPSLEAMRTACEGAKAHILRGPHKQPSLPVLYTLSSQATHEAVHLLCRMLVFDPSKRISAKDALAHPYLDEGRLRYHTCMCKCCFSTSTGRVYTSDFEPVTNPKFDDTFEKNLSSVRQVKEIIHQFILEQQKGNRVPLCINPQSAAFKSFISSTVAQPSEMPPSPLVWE
As to the kind of experiment: Selectivity interaction (KinomeScan (DiscoverX)) EUB0001079a NLK. The following applies: at 1 µM.

In experiment [5] the target is T3, Serine/threonine-protein kinase PLK4 (Homo sapiens) (UniProt O00444).
T3 sequence (whole entry): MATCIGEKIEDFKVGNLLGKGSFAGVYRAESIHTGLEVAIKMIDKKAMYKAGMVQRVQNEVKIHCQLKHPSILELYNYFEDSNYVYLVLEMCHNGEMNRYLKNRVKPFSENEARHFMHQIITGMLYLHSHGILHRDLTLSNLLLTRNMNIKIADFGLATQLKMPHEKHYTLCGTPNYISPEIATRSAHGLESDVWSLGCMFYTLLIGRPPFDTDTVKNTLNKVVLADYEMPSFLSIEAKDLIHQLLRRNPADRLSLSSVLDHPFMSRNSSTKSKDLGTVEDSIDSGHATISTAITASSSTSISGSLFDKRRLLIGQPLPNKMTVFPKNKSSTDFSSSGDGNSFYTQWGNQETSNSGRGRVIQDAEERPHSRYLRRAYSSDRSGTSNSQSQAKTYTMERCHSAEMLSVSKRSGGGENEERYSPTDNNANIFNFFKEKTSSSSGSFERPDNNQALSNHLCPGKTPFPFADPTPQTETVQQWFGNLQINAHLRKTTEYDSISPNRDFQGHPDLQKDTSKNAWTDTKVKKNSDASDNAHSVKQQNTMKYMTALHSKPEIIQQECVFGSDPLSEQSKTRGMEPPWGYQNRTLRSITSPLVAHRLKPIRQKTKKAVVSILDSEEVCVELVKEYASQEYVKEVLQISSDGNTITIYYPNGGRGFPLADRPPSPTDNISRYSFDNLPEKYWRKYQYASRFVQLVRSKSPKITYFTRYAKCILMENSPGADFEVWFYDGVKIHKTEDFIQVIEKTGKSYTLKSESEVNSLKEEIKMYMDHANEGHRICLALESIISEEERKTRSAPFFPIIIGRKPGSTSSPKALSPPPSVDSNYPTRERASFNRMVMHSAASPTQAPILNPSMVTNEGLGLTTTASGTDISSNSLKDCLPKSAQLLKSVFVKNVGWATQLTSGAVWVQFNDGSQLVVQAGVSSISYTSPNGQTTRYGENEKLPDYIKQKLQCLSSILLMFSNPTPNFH
As to the kind of experiment: Selectivity interaction (KinomeScan (DiscoverX)) EUB0001049a PLK4. As to conditions: at 1 µM.

Experiment [6] deals with Homeodomain-interacting protein kinase 1 (Homo sapiens, UniProt Q86Z02). As to the kind of experiment: Selectivity interaction (KinomeScan (DiscoverX)) EUB0000607a HIPK1. The following applies: at 10 µM.
Homeodomain-interacting protein kinase 1, sequence (Q86Z02 whole entry, looked up): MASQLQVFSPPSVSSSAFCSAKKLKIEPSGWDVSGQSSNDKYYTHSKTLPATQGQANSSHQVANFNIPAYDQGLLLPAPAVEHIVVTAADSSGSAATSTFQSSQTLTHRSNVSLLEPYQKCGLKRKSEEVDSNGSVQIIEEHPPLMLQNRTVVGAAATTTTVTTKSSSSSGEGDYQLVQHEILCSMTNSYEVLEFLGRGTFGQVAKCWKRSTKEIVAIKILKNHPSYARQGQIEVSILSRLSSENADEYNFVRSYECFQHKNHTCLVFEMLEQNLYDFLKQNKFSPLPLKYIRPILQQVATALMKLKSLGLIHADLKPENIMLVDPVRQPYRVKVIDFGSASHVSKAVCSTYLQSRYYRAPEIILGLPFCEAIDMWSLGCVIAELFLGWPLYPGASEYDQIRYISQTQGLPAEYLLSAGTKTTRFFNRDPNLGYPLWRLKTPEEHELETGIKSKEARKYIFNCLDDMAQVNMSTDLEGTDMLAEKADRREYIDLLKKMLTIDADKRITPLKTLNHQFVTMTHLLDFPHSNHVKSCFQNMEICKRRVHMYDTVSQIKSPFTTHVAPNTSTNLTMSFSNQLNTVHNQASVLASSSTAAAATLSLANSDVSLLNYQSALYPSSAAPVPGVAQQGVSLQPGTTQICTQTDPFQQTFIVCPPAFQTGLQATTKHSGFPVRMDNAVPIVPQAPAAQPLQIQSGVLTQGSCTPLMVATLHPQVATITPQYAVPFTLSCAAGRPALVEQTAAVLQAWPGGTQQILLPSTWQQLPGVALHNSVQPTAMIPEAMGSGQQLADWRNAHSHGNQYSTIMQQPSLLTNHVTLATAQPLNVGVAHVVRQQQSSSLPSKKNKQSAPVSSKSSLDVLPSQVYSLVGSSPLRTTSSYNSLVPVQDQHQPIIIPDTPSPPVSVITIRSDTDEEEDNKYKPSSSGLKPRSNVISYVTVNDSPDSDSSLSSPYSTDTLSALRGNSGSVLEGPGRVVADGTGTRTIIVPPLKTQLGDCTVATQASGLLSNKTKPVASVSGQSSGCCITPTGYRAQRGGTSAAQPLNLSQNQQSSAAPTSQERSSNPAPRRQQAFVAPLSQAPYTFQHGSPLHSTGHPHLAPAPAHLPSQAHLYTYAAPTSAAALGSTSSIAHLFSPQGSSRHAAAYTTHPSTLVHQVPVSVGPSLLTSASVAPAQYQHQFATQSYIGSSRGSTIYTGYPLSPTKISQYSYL
Experiment [7] addresses Calcium/calmodulin-dependent protein kinase type II subunit delta (Homo sapiens) (UniProt Q13557). As to the kind of experiment: Selectivity interaction (ActivX KiNativ screen (kinase selectivity in THP-1 cell lysates)) EUB0000639a CAMK2D. The experiment is classed as subcellular. The following applies: lysate, at 0.01 µM.
Experiment [8] deals with Tyrosine-protein kinase Yes (Homo sapiens) (UniProt P07947). As to the kind of experiment: Selectivity interaction (ActivX KiNativ screen (kinase selectivity in THP-1 cell lysates)) EUB0000639a YES1. The experiment is classed as subcellular. As to conditions: lysate.
Tyrosine-protein kinase Yes (Homo sapiens), sequence (P07947 2-543 limits assumed): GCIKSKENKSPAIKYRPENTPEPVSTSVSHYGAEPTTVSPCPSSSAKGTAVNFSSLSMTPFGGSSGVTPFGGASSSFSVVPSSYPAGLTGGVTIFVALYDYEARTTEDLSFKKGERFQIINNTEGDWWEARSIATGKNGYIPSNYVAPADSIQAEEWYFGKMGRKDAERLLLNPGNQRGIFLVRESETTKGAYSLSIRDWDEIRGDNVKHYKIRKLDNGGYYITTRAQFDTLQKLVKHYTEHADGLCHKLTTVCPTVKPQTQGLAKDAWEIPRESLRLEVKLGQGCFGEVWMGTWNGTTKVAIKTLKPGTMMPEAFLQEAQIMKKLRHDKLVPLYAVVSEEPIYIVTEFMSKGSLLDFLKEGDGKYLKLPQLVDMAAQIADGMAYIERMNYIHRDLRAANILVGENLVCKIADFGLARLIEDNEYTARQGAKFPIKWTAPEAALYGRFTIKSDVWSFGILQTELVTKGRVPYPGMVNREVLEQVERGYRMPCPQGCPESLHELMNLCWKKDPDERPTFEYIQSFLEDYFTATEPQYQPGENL
The target of experiment [9] is Rho-associated protein kinase 2 (Homo sapiens, UniProt O75116). As to the kind of experiment: Selectivity interaction (Kinase panel (literature)) EUB0001199aCl ROCK2. The following applies: at 1 µM.
Rho-associated protein kinase 2, sequence (O75116 whole entry, looked up): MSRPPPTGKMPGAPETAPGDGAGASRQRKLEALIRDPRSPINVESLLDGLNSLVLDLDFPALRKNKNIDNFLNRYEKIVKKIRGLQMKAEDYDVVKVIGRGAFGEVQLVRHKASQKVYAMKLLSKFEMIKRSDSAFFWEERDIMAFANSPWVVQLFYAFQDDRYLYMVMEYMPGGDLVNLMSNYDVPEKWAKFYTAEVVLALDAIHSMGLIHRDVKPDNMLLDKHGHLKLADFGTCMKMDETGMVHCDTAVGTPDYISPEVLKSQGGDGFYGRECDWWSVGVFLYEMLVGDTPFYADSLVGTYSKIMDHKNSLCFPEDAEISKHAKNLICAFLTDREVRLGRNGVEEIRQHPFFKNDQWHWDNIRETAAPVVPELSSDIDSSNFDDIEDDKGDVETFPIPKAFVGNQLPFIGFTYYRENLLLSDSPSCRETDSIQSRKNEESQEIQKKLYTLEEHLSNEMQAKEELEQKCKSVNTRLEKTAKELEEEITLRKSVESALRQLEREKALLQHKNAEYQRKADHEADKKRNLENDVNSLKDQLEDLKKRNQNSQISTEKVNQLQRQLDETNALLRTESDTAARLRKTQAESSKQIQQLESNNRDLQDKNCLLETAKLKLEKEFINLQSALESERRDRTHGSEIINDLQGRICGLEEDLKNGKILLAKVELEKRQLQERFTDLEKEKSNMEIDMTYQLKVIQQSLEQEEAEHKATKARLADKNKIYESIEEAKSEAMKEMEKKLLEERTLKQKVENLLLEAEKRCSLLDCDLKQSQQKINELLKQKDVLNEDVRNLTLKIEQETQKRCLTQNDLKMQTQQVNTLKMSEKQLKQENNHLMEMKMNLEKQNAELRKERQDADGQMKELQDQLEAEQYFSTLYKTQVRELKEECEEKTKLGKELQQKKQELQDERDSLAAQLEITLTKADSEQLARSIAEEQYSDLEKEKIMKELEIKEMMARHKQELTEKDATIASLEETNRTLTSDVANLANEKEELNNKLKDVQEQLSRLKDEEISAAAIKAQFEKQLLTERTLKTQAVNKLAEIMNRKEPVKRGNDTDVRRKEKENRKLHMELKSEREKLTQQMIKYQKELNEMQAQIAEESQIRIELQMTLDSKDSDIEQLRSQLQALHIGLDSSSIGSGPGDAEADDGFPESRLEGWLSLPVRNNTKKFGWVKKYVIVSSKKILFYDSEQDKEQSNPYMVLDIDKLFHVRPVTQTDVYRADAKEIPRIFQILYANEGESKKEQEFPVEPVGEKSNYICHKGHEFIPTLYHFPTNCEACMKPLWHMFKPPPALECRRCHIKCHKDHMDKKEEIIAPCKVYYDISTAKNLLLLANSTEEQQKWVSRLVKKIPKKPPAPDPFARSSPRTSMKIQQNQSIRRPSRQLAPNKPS

RAC-beta serine/threonine-protein kinase (Homo sapiens), sequence (P31751 whole entry): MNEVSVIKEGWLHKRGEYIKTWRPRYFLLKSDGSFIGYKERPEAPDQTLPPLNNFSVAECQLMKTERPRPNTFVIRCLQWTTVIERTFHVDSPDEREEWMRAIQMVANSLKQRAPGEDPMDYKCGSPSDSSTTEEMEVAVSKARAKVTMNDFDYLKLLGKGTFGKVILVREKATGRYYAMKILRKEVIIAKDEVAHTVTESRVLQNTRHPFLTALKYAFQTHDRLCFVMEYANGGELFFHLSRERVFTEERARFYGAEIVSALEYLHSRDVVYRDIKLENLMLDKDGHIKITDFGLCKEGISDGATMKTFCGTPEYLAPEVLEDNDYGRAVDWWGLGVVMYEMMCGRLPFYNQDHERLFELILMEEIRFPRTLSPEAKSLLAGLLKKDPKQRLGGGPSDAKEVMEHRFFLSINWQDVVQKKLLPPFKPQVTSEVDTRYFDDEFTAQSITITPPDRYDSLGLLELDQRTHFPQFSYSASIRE
Calcium/calmodulin-dependent protein kinase type II subunit delta (Homo sapiens), sequence (Q13557 whole entry): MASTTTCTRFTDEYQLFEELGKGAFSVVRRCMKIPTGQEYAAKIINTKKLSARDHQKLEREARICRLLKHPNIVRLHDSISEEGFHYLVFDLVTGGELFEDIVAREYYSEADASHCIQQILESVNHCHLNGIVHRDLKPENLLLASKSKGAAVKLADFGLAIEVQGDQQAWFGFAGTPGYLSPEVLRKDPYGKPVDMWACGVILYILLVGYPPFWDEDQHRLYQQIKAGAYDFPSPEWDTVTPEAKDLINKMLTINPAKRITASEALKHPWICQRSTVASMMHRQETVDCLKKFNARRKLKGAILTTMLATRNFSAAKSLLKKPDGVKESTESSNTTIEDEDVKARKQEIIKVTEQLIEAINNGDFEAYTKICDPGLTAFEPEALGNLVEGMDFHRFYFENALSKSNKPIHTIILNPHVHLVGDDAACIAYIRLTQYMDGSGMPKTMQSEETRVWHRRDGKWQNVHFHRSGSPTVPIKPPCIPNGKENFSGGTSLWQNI

With `C=CC(=O)Nc1cccc(C(=O)Nc2ccc(Nc3cc(-c4[nH]c(SC)nc4C)ccn3)cc2)c1`, the % of control in [1] (at 1 µM) was 92%; in experiment [1] (at 5 µM) it was 78%; in experiment [2] (at 1 µM), 88%; in experiment [2] (at 5 µM), 93%.

Take `Nc1cnc(N2CCc3cc(S(=O)(=O)Nc4c(F)cc(Cl)cc4F)cc(N4CCCC4=O)c32)nc1` [TP-020n]: the % of control in [3] stood at 67%; in experiment [4], 100%.

For the compound `COc1cc(Nc2nc(C)cc(-c3cnn4nc(OC)ccc34)n2)cc(C(F)(F)F)c1`, in experiment [5], the % of control was 49%.

The compound `CNC(=O)Nc1ccc(-c2nc(N3CC4CCC(C3)O4)c3cnn(C4CCC5(CC4)OCCO5)c3n2)cc1` gave a % of control in experiment [6] of 100%.

Turning to `CC[C@@H]1[C@H](F)C(=O)N[C@@H]1COc1nccc2cc(C(N)=O)c(OC)cc12` [ZIMLOVISERTIB], the % of inhibition in experiment [7] is 3.3%; in [8] (at 0.01 µM), -8.5%; in experiment [8] (at 0.04 µM), -0.2%; in [8] (at 0.2 µM), 0.7%; in [8] (at 1 µM), -11%; in experiment [8] (at 5 µM), -13.3%.

`CN1Cc2nccc(-c3cn(C)nc3-c3ccc(F)cc3)c2C1=O`: the % of inhibition in experiment [9] was determined as 6%.
